# Literature values in patent US11484510B2, “Method to treat vitiligo” (APIRX PHAR[…], LLC, priority 2017, dated 2022).
# Experiments:
# CB1 receptor = CB1 receptor (Homo sapiens, UniProt P21554)
# Sequence of CB1 receptor (P21554 whole entry): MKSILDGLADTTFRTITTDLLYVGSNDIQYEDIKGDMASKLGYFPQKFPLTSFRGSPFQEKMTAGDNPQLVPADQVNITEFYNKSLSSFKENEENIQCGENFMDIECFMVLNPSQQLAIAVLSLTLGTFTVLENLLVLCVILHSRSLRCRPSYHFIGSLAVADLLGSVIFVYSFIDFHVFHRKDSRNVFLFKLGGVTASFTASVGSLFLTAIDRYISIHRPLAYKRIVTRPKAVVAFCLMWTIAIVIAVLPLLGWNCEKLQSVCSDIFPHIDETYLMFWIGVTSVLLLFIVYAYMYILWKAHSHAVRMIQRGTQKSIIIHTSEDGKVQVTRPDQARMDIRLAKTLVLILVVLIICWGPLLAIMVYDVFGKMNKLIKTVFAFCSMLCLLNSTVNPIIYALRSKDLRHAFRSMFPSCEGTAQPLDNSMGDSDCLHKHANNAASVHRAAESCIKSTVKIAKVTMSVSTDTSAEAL
smiles,measurement,setting,value
"CCCCCc1cc(O)c(C/C=C(\C)CCC=C(C)C)c(O)c1 [CBG, 2-[(2E)-3,7-dimethylocta-2,6-dienyl]-5-pentyl-benzene-1,3-diol]","Affinity, 5-HT1A receptor antagonist",5-HT1A receptor,moderate affinity
same,"Affinity, CB1 receptor antagonist",CB1 receptor,low affinity
same,"Affinity, α2-adrenergic receptor agonist",α2-adrenergic receptor,high affinity
